Marks after values point to notes of the source that are not given here.
Test system: C. albicans
Experiment: in vivo antifungal activity, candidemia in mice infected with C. albicans
Set-up: species or system Albino male mice; Total Protein Mean ± SE: unit not given here
Settings: for daily body weight / % change in daily body weight / Food consumption / Mortality / Water consumption: oral 12 mg/kg then 6 mg/ml
Description: To confirm that the water soluble form of the compound 4 has a biological activity as a novel antimicrobial agent, effectiveness of the compound 4 as a drug to treat candidemia in mice was investigated. The experiment was performed in Experimental Animal Care Center (EACC), College of Pharmacy, King Saud University, Riyadh. Fifty Albino male mice, weighing nearly 30±2 gram were used. The mice were arranged in five groups, each including ten mice caged together, given water, and feed ad libitum. Negative control and control group were infected intravenously with 0.2 ml of C. albicans suspension (10^6 CFU/mouse) and 0.2 ml of sterile normal saline (0.89% Nacl) respectively. The group treated with standard drug (fluconazole) was infected intravenously with 0.2 ml of C. albicans suspension (10^6 CFU/mouse) and treated (orally) by 12 mg/kg of fluconazole (loading dose) on the first day followed by 6 mg/ml for 2 weeks. The group treated with the investigated compound 4 was infected intravenously with C. albicans at 10^6 CFU/mouse (0.2 ml) and treated (orally) by 12 mg/kg of the compound 4 (loading dose) on the first day followed by 6 mg/ml for 2 weeks. To study the biological effects of compound 4, a fifth group was designed. In this group the mice were treated intravenously (I. V) with 12 mg/kg of the compound 4 on the first day followed by 6 mg/ml for 2 weeks. All doses of the standard drug and compound 4 were given twice daily.
The effectiveness of the previous treatments on some biological concepts were evaluated. The biological parameters included daily body weight (gm), mortality (%), food consumption (g/day/mouse), water consumption (ml/day/mouse), serum glutamic oxaloacetic transaminase [SGOT(AST) (U/L)], serum glutamic-pyruvic transaminase [SGPT(ALT)(U/L)], alkaline phosphatase (U/L), gamma-glutamyl transferase (GGT) (U/L), bilirubin (mg/dl)], cholesterol (mg/dl), triglycerides (mg/dl), high-density lipoprotein (HDL) (mg/dl), very-low-density lipoprotein (VLDL) (mg/dl), low-density lipoprotein (LDL) (mg/dl), lactate dehydrogenase (LDH) (U/L), glucose (mg/dl), total protein (mg/dl), malondialdehyde (MDA) (nmol/g), nonprotein sulfyhydryl (NP-SH) (nmol/g). Addition hematologic constituents including white blood cells (WBC) (cell/mm^3), red blood cells (RBC) (10^6/mm^3), hemoglobin (HGB) (g/dL), HCT, Platelets (PLT) (10^3/mm^3), mean corpuscular volume (MCV) (fL), mean corpuscular hemoglobin (MCH) (pg), mean corpuscular hemoglobin concentration (MCHC) (g/dL), neutrophils (%), lymphocytes (%), eosinophils (%) and monocytes (%)] were evaluated (Classics Lowry et al. 1951; Utley et al. 1967; Sedlak et al. 1968). SGOT (AST), SGPT (ALT), ALP, GGT, bilirubin LDH and total protein were estimated using Reflotron Plus Analyzer and Roche kits (Roche Diagnostics GmbH, Mannheim Germany) and United diagnostic kits assay. Hematological tests were performed by Mindray BC-2800VET auto Hematology Analyzer.

[1] = C. albicans-infected mice, day 1
[2] = C. albicans-infected mice, day 2
[3] = C. albicans-infected mice, day 3
[4] = C. albicans-infected mice, day 4
[5] = C. albicans-infected mice, day 5
[6] = C. albicans-infected mice, day 6
[7] = C. albicans-infected mice, day 7
[8] = C. albicans-infected mice, day 8
[9] = C. albicans-infected mice, day 9
[10] = C. albicans-infected mice, day 10
[11] = C. albicans-infected mice, day 11
[12] = C. albicans-infected mice, day 12
[13] = C. albicans-infected mice, day 13
[14] = C. albicans-infected mice, day 14
[15] = C. albicans-infected mice, day 15
[16] = blood, C. albicans-infected mice, oral 12 mg/kg then 6 mg/ml for 2 weeks
[17] = liver tissue, C. albicans-infected mice, oral 12 mg/kg then 6 mg/ml for 2 weeks
[18] = serum, C. albicans-infected mice, oral 12 mg/kg then 6 mg/ml for 2 weeks

CCOC(=O)CSC(=S)SCC(=O)OCC [Compound 4, diethyl 2,2′-(thiocarbonylbis(sulfanediyl))diacetate]
daily body weight (C. albicans-infected mice, day 0): 21.00 ± 0.36 gm | % change in daily body weight [1]: 2.38% | Food consumption [1]: 4.5 g/day/mice | Mortality [1]: 0% | Water consumption [1]: 4.5 g/day/mice | daily body weight [1]: 21.50 ± 0.26 gm | % change in daily body weight [2]: 4.76% | Food consumption [2]: 4.6 g/day/mice | Mortality [2]: 0% | Water consumption [2]: 4.5 g/day/mice | daily body weight [2]: 22.00 ± 0.25 gm | % change in daily body weight [3]: 6.19% | Food consumption [3]: 4.7 g/day/mice | Mortality [3]: 0% | Water consumption [3]: 4.7 g/day/mice | daily body weight [3]: 22.3 ± 0.21 gm | % change in daily body weight [4]: 9.04% | Food consumption [4]: 4.9 g/day/mice | Mortality [4]: 0% | Water consumption [4]: 4.9 g/day/mice | daily body weight [4]: 22.90 ± 0.27 gm | % change in daily body weight [5]: 12.16% | Food consumption [5]: 4.00 g/day/mice | Mortality [5]: 10% | Water consumption [5]: 4.2 g/day/mice | daily body weight [5]: 23.55 ± 0.37 gm | % change in daily body weight [6]: 15.34% | Food consumption [6]: 4.2 g/day/mice | Mortality [6]: 10% | Water consumption [6]: 4.6 g/day/mice | daily body weight [6]: 24.22 ± 0.32 gm | % change in daily body weight [7]: 17.46% | Food consumption [7]: 4.2 g/day/mice | Mortality [7]: 10% | Water consumption [7]: 5.7 g/day/mice | daily body weight [7]: 24.66 ± 0.23 gm | % change in daily body weight [8]: 18.45% | Food consumption [8]: 4.3 g/day/mice | Mortality [8]: 20% | Water consumption [8]: 4.6 g/day/mice | daily body weight [8]: 24.87 ± 0.29 gm | % change in daily body weight [9]: 20.23% | Food consumption [9]: 4.5 g/day/mice | Mortality [9]: 20% | Water consumption [9]: 4.6 g/day/mice | daily body weight [9]: 25.25 ± 0.25 gm | % change in daily body weight [10]: 20.83% | Food consumption [10]: 4.5 g/day/mice | Mortality [10]: 20% | Water consumption [10]: 4.8 g/day/mice | daily body weight [10]: 25.37 ± 0.26 gm | % change in daily body weight [11]: 24.48% | Food consumption [11]: 4.7 g/day/mice | Mortality [11]: 30% | Water consumption [11]: 5.1 g/day/mice | daily body weight [11]: 26.14 ± 0.26 gm | % change in daily body weight [12]: 25.17% | Food consumption [12]: 5.0 g/day/mice | Mortality [12]: 30% | Water consumption [12]: 5.4 g/day/mice | daily body weight [12]: 26.28 ± 0.28 gm | % change in daily body weight [13]: 29.93% | Food consumption [13]: 5.14 g/day/mice | Mortality [13]: 30% | Water consumption [13]: 5.5 g/day/mice | daily body weight [13]: 27.28 ± 0.28 gm | % change in daily body weight [14]: 34.92% | Food consumption [14]: 5.3 g/day/mice | Mortality [14]: 30% | Water consumption [14]: 5.5 g/day/mice | daily body weight [14]: 28.33 ± 0.49 gm | % change in daily body weight [15]: 36.50% | Food consumption [15]: 5.5 g/day/mice | Mortality [15]: 30% | Water consumption [15]: 5.8 g/day/mice | daily body weight [15]: 28.66 ± 0.33 gm | Eosinophils Mean ± SE [16]: 1.30 ± 0.02% | HCT Mean ± SE [16]: 31.3 ± 0.42 | HGB Mean ± SE [16]: 9.8 ± 0.14 g/dL | Lymphocytes Mean ± SE [16]: 7.10 ± 0.07% | MCH Mean ± SE [16]: 26.3 ± 0.5 pg | MCHC Mean ± SE [16]: 23.4 ± 1.0 g/dL | MCV Mean ± SE [16]: 53.7 ± 2.0 fL | Monocytes Mean ± SE [16]: 0.88 ± 0.07^b % | Neutrophils Mean ± SE [16]: 24.1 ± 0.2% | PLT Mean ± SE [16]: 522.3 ± 10.1 10^3/mm^3 | RBC Mean ± SE [16]: 6.16 ± 0.1 10^6/mm^3 | WBC Mean ± SE [16]: 7540.8 ± 87.3 Cell/mm^3 | effect on mortality caused by C. albicans, in words (dose of 800 mg as the loading dose, followed by 400 mg/d for 2 week): reduced the mortality | MDA [17]: 4.57 ± 0.25***^b nmol/g | Total Protein [17]: 77.84 ± 2.37**^b g/l | Alkaline phosphatase Mean ± SE [18]: 354.66 ± 5.57 U/L | Bilirubin Mean ± SE [18]: 1.15 ± 0.03 mg/dL | Cholesterol Mean ± SE [18]: 159.8 ± 3.4 mg/dL | GGT Mean ± SE [18]: 7.18 ± 0.20 U/L | Glucose level Mean ± SE [18]: 166.83 ± 4.32**^b mg/dl | HDL Mean ± SE [18]: 26.9 ± 1.1 mg/dL | LDH Mean ± SE [18]: 220.98 ± 3.96**^b U/L | LDL Mean ± SE [18]: 105.9 ± 4.6 mg/dL | SGOT(AST) Mean ± SE [18]: 169.33 ± 2.69 U/L | SGPT(ALT) Mean ± SE [18]: 83.50 ± 2.35 U/L | Total Protein Mean ± SE [18]: 4.91 ± 0.09 | Triglycerides Mean ± SE [18]: 134.8 ± 3.8 mg/dL | VLDL Mean ± SE [18]: 26.9 ± 0.7 mg/dL

Reference: US9988348B1, “Synthesis and antimicrobial use of a trithiocarbonate derivative” (KING SAUD UNIVERSITY, priority 2017, dated 2018)
